The text below walks through data of patent US8664235B2, “6-Halogeno-[1,2,4]triazolo[1,5-a]pyrimidines for combating animal pests” (Merial Limited, priority 2003, dated 2014).

Type in all cases: in vivo
Experiment [1] relates to Cotton Aphid (Aphis gossypii). The experiment in a line: Cotton aphid test, cotyledons dipped in test solution. The conditions noted are these: 120 h, cotton plants, after 5 days, read-out: mortality in comparison with untreated controls. On the procedure: (§1) Surfactant (Alkamuls EL 620) was added at the rate of 0.1% (vol/vol).
(§2) After the experiments were completed, in each case the lowest concentration was determined at which the compound still caused an 75 to 100% inhibition or mortality in comparison with untreated controls (limit or minimal concentration).
Cotton plants in the cotyledon stage (variety ‘Delta Pine’) are infested with approximately 100 laboratory-reared aphids by placing infested leaf sections on top of the test plants. The leaf sections are removed after 24 hr. The cotyledons of the intact plants are dipped into gradient solutions of the test compound. Aphid mortality on the treated plants, relative to mortality on check plants, is determined after 5 days.

Experiment [2] has as its system Twospotted Spider Mite (Tetranychus urticae). Put plainly: Twospotted spider mite test, lima bean foliage dipped. The conditions noted are these: foliar, 120 h, lima bean plants, after 5 days, read-out: mortality in comparison with untreated controls. On the procedure:
as §1, §2
Lima bean plants in the 1st leaf-pair stage (variety ‘Henderson’) are infested with approximately 100 laboratory-reared mites per leaf by placing infested leaf sections on top of the test plants. The leaf sections are removed after 24 hr. The foliage of the intact plants is dipped into gradient solutions of the test compound. Mite mortality is determined after 5 days.

The subject of experiment [3] is Green Peach Aphid (Myzus persicae). Put plainly: Green peach aphid test, pepper leaves dipped. The following applies: 120 h, read-out: mortality in comparison with untreated controls. On the procedure:
as §1, §2
Pepper plants in the 2nd leaf-pair stage (variety ‘California Wonder’) are infested with approximately 40 laboratory-reared aphids by placing infested leaf sections on top of the test plants. The leaf sections are removed after 24 hr. The leaves of the intact plants are dipped into gradient solutions of the test compound. Aphid mortality on the treated plants, relative to mortality on check plants, is determined after 5 days.

Another experiment relates to Bean Aphid (Aphis fabae). Put plainly: Bean aphid test, nasturtium foliage and stem dipped. The conditions noted are these: foliar, 72 h, nasturtium plants, after 3 days, read-out: mortality in comparison with untreated controls. Here is the method: as §1, §2
Nasturtium plants in the 1st leaf-pair stage (variety ‘Mixed Jewel’) are infested with approximately 25 laboratory-reared aphids by placing infested cut plants on top of the test plants. The cut plants are removed after 24 hr. The foliage and stem of the test plants are dipped into gradient solutions of the test compound. Aphid mortality is determined after 3 days.

In the case of `CCc1nc2ncnn2c(N[C@H]2CC[C@@H](C(C)(C)C)CC2)c1Cl` [Example 1, (cis-4-tert-butyl-cyclohexyl)-[6-chloro-5-ethyl-[1,2,4]triazolo[1,5-a]pyrimidin-7-yl]-amine], the mortality at 300 ppm in experiment [1] was greater than 75%; in experiment [2] it was greater than 75%; in experiment [3], 100%; with Bean Aphid (Aphis fabae), greater than 75%.

Consider `Cc1nc2ncnn2c(N[C@@H](C)c2ccc(F)cc2)c1Cl` [Example 114, (S)-(6-chloro-5-methyl-[1,2,4]triazolo[1,5-a]pyrimidin-7-yl)-[1-(4-fluorophenyl)-ethyl]-amine], for which the mortality at 300 ppm was greater than 75% in experiment [1] and 100% in experiment [3].

Usually mortality stands for the share of the test organisms that died.
